From patent US5350574A, “Derivatives of cyclosporina A, antibodies directed thereto and uses thereof” (The Trustees of Columbia University in the City of New York, priority 1991, dated 1994)
Entries after “also recorded” stand apart in the source; their conditions may differ.

Key:
EL-4 cells = test: Cell agglutination assay, EL-4 cells; assay type: cell-based; details: inhibitor concentration not given
Experimental: (§1) T or B cells (4-8×10^4 cells) were added to 200 μl of medium (see above) containing 50 μl of either PBS (vehicle control), aminodextran, BBa-aminodextran, or CsA-BBa-aminodextran at a concentration of 5×10^-7 M, in the presence or absence of various inhibitors or solvent controls, gently agitated on a platform shaker for 15 minutes at 25° C., incubated without agitation for 2-3 hours at 25° C., placed in a refrigerator and examined for agglutination periodically. The end points can begin to be seen after about 2-3 hours.

DO-11.10 = test: Cell agglutination assay, DO-11.10 T-cell hybridoma; assay type: cell-based
Experimental: as §1

32-6.F12 = test: Cell agglutination assay, 32-6.F12 T-cell hybridoma; assay type: cell-based
Experimental: as §1

[1] = system: rabbit antibody R575 (anti-CsA); test: Inhibition RIA for antibody specificity with CsA analogues; assay type: binding; details: for IC50: read-out: IC50 (Concentration for 50% inhibition), inhibition of [3H]dihydro CsA binding to R575, overnight at 4° C.; for affinity group for the antibodies (inhibition RIA): result in words
Experimental: Serum antibodies were detected by a modification of the published radioimmunoassay (5, 12 ). […] Binding by diluted preimmune serum was used as a control. Free and bound ligand were separated with charcoal supplied by Sandoz according to their procedure.
The cyclosporin derivatives were dissolved in 100% ethanol at a concentration of 5.0 mg/ml, stored at -20° C., and diluted to final concentrations of 0.27 nM to 2.7 μM in Sandoz buffer B for the inhibition experiments.

O=C(O)c1ccc(C(=O)c2ccccc2)cc1 [BBa, 4-Benzyoylbenzoic acid]
inhibition of agglutination of EL-4 cells by CsA-BBa-aminodextran (EL-4 cells): no inhibition
inhibition of agglutination of DO-11.10 cells by CsA-BBa-aminodextran (DO-11.10): not
inhibition of agglutination of 32-6.F12 cells by CsA-BBa-aminodextran (32-6.F12): not

C/C=C/C[C@@H](C)[C@@H](O)[C@H]1C(=O)N[C@@H]([C@@H](C)O)C(=O)N(C)CC(=O)N(C)[C@@H](CC(C)C)C(=O)N[C@@H](C(C)C)C(=O)N(C)[C@@H](CC(C)C)C(=O)N[C@@H](C)C(=O)N[C@H](C)C(=O)N(C)[C@@H](CC(C)C)C(=O)N(C)[C@@H](CC(C)C)C(=O)N(C)[C@@H](C(C)C)C(=O)N1C [CsC]
IC50 [1]: 11.5 nM
affinity group for the antibodies (inhibition RIA) [1]: Moderate affinities

C/C=C/C[C@@H](C)[C@@H](O)[C@H]1C(=O)N[C@@H](CC)C(=O)N(C)CC(=O)N(C)[C@@H](CC(C)C)C(=O)N[C@@H](C(C)C)C(=O)N(C)[C@@H](CC(C)C)C(=O)N[C@@H](C)C(=O)N[C@H](COC(C)(C)C)C(=O)N(C)[C@@H](CC(C)C)C(=O)N(C)[C@@H](CC(C)C)C(=O)N(C)[C@@H](C(C)C)C(=O)N1C [Derivative 717]
inhibition of [3H]CsA binding obtainable ([1]; maximal inhibition by competing derivative): more than 50%
IC50 [1]: 2700 nM
affinity group for the antibodies (inhibition RIA) [1]: inhibits very poorly; also recorded: low affinity

C/C=C/C[C@@H](C)[C@@H](O)[C@H]1C(=O)N[C@@H](CC)C(=O)N(C)CC(=O)N(C)[C@@H](CC(C)C)C(=O)N[C@@H](C(C)C)C(=O)N(C)[C@@H](CC(C)C)C(=O)N[C@@H](C)C(=O)N[C@H](C)C(=O)N(C)[C@@H](CC(C)C)C(=O)N(C)[C@@H](CC(C)C)C(=O)N(C)[C@@H]([C@@H](C)CC)C(=O)N1C [Derivative 032]
IC50 [1]: 7 nM
affinity group for the antibodies (inhibition RIA) [1]: high affinity group; also recorded: bind best

C/C=C/C[C@@H](C)[C@@H](O)[C@H]1C(=O)N[C@@H](CC)C(=O)N2CCC[C@H]2C(=O)N(C)[C@@H](CC(C)C)C(=O)N[C@@H](C(C)C)C(=O)N(C)[C@@H](CC(C)C)C(=O)N[C@@H](C)C(=O)N[C@H](C)C(=O)N(C)[C@@H](CC(C)C)C(=O)N(C)[C@@H](CC(C)C)C(=O)N(C)[C@@H](C(C)C)C(=O)N1C [Derivative 582]
IC50 [1]: 12 nM
affinity group for the antibodies (inhibition RIA) [1]: Moderate affinities

C/C=C/C[C@@H](C)[C@@H](OC(C)=O)[C@H]1C(=O)N[C@@H](CC)C(=O)N(C)CC(=O)N(C)[C@@H](CC(C)C)C(=O)N[C@@H](C(C)C)C(=O)N(C)[C@@H](CC(C)C)C(=O)N[C@@H](C)C(=O)N[C@H](C)C(=O)N(C)[C@@H](CC(C)C)C(=O)N(C)[C@@H](CC(C)C)C(=O)N(C)[C@@H](C(C)C)C(=O)N1C [Derivative 243]
IC50 [1]: 6 nM
affinity group for the antibodies (inhibition RIA) [1]: high affinity group; also recorded: bind best

C/C=C/C[C@@H](C)[C@@H](O)[C@H]1C(=O)N[C@@H](CC)C(=O)N(C)CC(=O)N(C)[C@@H](CC(C)C)C(=O)N[C@@H](C(C)C)C(=O)N(C)[C@H](C)C(=O)N[C@@H](C)C(=O)N[C@H](C)C(=O)N(C)[C@@H](CC(C)C)C(=O)N(C)[C@@H](CC(C)C)C(=O)N(C)[C@@H](C(C)C)C(=O)N1C [Derivative 039]
IC50 [1]: 18 nM
affinity group for the antibodies (inhibition RIA) [1]: Moderate affinities

C/C=C/C[C@@H](C)[C@@H](O)[C@H]1C(=O)N[C@@H](C(C)C)C(=O)N(C)CC(=O)N(C)[C@@H](CC(C)C)C(=O)N[C@@H](C(C)C)C(=O)N(C)[C@@H](CC(C)C)C(=O)N[C@@H](C)C(=O)N[C@H](C)C(=O)N(C)[C@@H](CC(C)C)C(=O)N(C)[C@@H](CC(C)C)C(=O)N(C)[C@@H](C(C)C)C(=O)N1C [CsD]
IC50 [1]: 4.3 nM
affinity group for the antibodies (inhibition RIA) [1]: high affinity group; also recorded: bind best

C/C=C/C[C@@H](C)[C@@H](O)[C@H]1C(=O)N[C@@H]([C@@H](C)OC(C)=O)C(=O)N(C)CC(=O)N(C)[C@@H](CC(C)C)C(=O)N[C@@H](C(C)C)C(=O)N(C)[C@@H](CC(C)C)C(=O)N[C@@H](C)C(=O)N[C@H](C)C(=O)N(C)[C@@H](CC(C)C)C(=O)N(C)[C@@H](CC(C)C)C(=O)N(C)[C@@H](C(C)C)C(=O)N1C [Derivative 665]
IC50 [1]: 4.8 nM
affinity group for the antibodies (inhibition RIA) [1]: high affinity group; also recorded: bind best
